Source: patent publication US4250255A, “Assay method for isoenzyme activity” (Eastman Kodak Company, priority 1977, dated 1981)
Where two headings read alike, the source gives them in different places.

Key:
mMDH = biological target: T1, mMDH (Sus scrofa, UniProt P00346); test: Assay for MDH (oxalacetic acid + NADH, 340 nm); format: biochemical, porcine; conditions: FIG. 17
T1 construct: Porcine cMDH and mMDH were used as ammonium sulfate suspensions
T1 sequence (P00346 25-338): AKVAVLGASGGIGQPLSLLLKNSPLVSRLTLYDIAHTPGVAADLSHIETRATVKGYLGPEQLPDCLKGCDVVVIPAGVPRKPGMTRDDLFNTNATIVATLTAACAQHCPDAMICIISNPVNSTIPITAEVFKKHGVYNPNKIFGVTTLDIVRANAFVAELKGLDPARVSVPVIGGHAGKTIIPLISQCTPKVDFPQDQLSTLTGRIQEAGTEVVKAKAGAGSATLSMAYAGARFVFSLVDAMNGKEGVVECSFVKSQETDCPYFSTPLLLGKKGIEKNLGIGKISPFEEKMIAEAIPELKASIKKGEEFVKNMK
Method: 1. Porcine cMDH and mMDH were used as ammonium sulfate suspensions. Typically, 5 μl of the enzyme stock solutions were diluted to 10 ml with 30 mM phosphate buffer, pH 7.4, prior to use. The resulting enzyme solutions were stored in ice water; 100 μl aliquots were withdrawn for assay except where another amount is specified.
The assay is based on conversion of oxalacetic acid to malate in the presence of NADH and MDH. The assay was made [formula] in 30 mM phosphate buffer, at ambient temperature, with and without appropriate surfactant concentrations, and contained 0.17 mM OAA and 0.13 mM NADH. The reaction was followed by monitoring the decrease in absorbance at 340 nm using either a Beckman 25 or Cary 118 spectrophotometer. The OAA solutions were stored over ice to prevent hydrolysis to pyruvic acid.

LD1 [1] = biological target: T2, LD1 (Sus scrofa, UniProt P00336); test: LDH activity assay with amphiphile, LDH isoenzymes; format: biochemical, porcine; set-up: porcine LDH, LD1, LD2, LD3, LD4 and LD5 in the form of ammonium sulfate suspensions
T2 sequence (P00336 2-334): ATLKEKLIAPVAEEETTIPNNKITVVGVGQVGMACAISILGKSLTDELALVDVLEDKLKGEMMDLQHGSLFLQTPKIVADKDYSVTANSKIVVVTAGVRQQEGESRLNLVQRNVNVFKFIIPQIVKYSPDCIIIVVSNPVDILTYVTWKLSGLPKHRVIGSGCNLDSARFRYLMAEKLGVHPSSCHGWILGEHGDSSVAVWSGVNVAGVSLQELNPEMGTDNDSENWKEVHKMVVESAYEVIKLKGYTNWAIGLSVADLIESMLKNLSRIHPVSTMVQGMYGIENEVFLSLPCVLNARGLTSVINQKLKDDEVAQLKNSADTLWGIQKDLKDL
Method: (§1) 3. Beef heart LDH (Sigma Chemical Co., Type III), rabbit muscle LDH (Sigma Chemical Co., Type V) and porcine LDH, LD1, LD2, LD3, LD4 and LD5 in the form of ammonium sulfate suspensions were used for these examples.
(§2) The assay for LDH activity in both the absence and presence of surfactant was conducted as follows. […] The resulting solution contains approximately 5 units/ml. […] To the equilibrated solution […]. of the enzyme solution was added, and the cuvette was rapidly shaken while covering the top of the cuvette with a small piece of Parafilm® and placed back into the spectrophotometer.
(§3) Amphiphile solutions were prepared by weighing out a given amount of amphiphile, e.g., 100 mg, and preparing a stock solution in 30 mM sodium phosphate buffer in 100 ml. volumetric flask. Solutions of lower amphiphile concentration were prepared by making the appropriate dilutions from the stock solution.

LD1 [2] = biological target: T2, LD1; test: LDH isoenzyme assay using a multilayer element; format: biochemical, porcine; set-up: purified porcine LDH isoenzymes; conditions: web with DSS 0.54 g/m^2 in the spreading-reagent layer; control web 11
Method: (§4) Analytical elements containing all of the reagents necessary to quantitate specific isoenzymes were prepared according to the following format:
(§5) A polycarbonate-subbed Lexan® support was coated with a reagent layer comprising agarose (2.7 g/m^2) and NADH (0.12 g/m^2) in 0.1 M Tris buffer at pH 7.4, and a spreading-reagent layer comprising Avicel® (43 g/m^2), sodium pyruvate (0.5 g/m^2), polyvinyl pyrrolidone (PVP) (2.15 g/m^2) in isopropyl alcohol, and sodium decylsulfate (DSS) (0.54 g/m^2).
(§6) Control webs were coated as above except no sodium decylsulfate was added to the spreading-reagent layer.
(§7) Two aqueous solutions of purified porcine LDH isoenzymes, one containing LD1 and the other LD5, were prepared in 0.01 M Tris buffer, pH 7.4, at approximately 90 mU/ml. Sample aliquots (10 μl) of each solution and a buffer control (0.01 M Tris) were spotted onto the webs which were then monitored in a POS unit for decreasing fluorescence of the NADH with respect to time at 340 nm.

LD5 [3] = biological target: T3, LD5 (Sus scrofa, UniProt P00339); test: LDH isoenzyme assay using a multilayer element; format: biochemical, porcine; set-up: purified porcine LDH isoenzymes; conditions: web with DSS 0.54 g/m^2 in the spreading-reagent layer; control web 13
Method: as §4, §5, §6, §7

LD2 = biological target: T4, LD2 (Sus scrofa, UniProt P00336+P00339); test: LDH activity assay with amphiphile, LDH isoenzymes; format: biochemical, porcine; conditions: pH 7.4, read-out: LD2 activity remaining relative to buffer
T4 construct: porcine LDH, LD1, LD2, LD3, LD4 and LD5 in the form of ammonium sulfate suspensions
Method: as §1, §2, §3

LD4 = biological target: T5, LD4 (Sus scrofa, UniProt P00336+P00339); test: LDH activity assay with amphiphile, LDH isoenzymes; format: biochemical, porcine; conditions: 7 mM DSS; FIG. 8
T5 construct: porcine LDH, LD1, LD2, LD3, LD4 and LD5 in the form of ammonium sulfate suspensions
Method: as §1, §2, §3

LD3 = biological target: T6, LD3 (Sus scrofa, UniProt P00336+P00339); test: LDH activity assay with amphiphile, LDH isoenzymes; format: biochemical, porcine; conditions: pH 7.4, read-out: LD3 activity remaining relative to buffer
T6 construct: porcine LDH, LD1, LD2, LD3, LD4 and LD5 in the form of ammonium sulfate suspensions
Method: as §1, §2, §3

LD1 and LD5 = test: Screening of amphiphiles for ability to discriminate between LD1 and LD5
Method: A series of solutions was prepared covering a range of concentrations for each amphiphile to be tested. The activities of both LD1 and LD5 were determined in the presence of the various concentrations of each amphiphile and compared with enzyme activities in buffer (relative activity).
Enzyme activity in the presence and absence of amphiphile was measured by the following procedure: Stock solutions of NADH (4 mM) and pyruvate (40 mM) were prepared daily in 30 mM sodium phosphate buffer, pH 7.4. Enzyme solutions were prepared daily by withdrawing 5 μl of the stock enzyme solutions with a Hamilton syringe and diluting to 5 ml with 30 mM sodium phosphate buffer. (The resulting solution contains approximately 5 U of enzyme/ml.) The enzyme assay was run by pipetting 2.7 ml of buffer or buffer surfactant solution into a 10 mm path length quartz cuvette, and 100 μl each of NADH and pyruvate stock solutions were added. […] Enzyme solution was added with good mixing; the absorbance decrease at 340 nm was measured as a function of time. The rate of the reaction was determined by measuring the slope of the initial absorbance decrease, i.e., within the first 50 seconds of the reaction.

LD5 [4] = biological target: T3, LD5; test: LDH activity assay with amphiphile, LDH isoenzymes; format: biochemical, porcine; set-up: LD5 from two different species, i.e., rabbit muscle and hog muscle; from tissue; host or cells: hog muscle; conditions: 7 mM DSS; FIG. 8
Method: as §1, §2, §3

[5] = biological target: T7, LDH isoenzymes (LD5 in the presence of LD1) (Oryctolagus cuniculus, UniProt P13491); test: Anionic amphiphiles tested for specific interaction with LDH isoenzymes (Table 2); format: biochemical
T7 construct: LD1 (LDHB tetramer) only as comparison
Method: as §2, §3
A number of anionic amphiphiles were investigated for specific inactivation of LD5 in the presence of LD1 and these compounds are listed in Table 2.

LD1 (beef heart) = biological target: T8, LD1 (beef heart) (Bos taurus, UniProt Q5E9B1); test: LDH activity assay (pyruvate + NADH, absorbance decrease at 340 nm); format: biochemical; conditions: DSS 8.65 mM; CP 1 mM; FIG. 1B
T8 construct: Beef heart LDH (Sigma Chemical Co., Type III); purchased Sigma Chemical Co. Type III; host or cells: beef heart
T8 sequence (Q5E9B1 2-334): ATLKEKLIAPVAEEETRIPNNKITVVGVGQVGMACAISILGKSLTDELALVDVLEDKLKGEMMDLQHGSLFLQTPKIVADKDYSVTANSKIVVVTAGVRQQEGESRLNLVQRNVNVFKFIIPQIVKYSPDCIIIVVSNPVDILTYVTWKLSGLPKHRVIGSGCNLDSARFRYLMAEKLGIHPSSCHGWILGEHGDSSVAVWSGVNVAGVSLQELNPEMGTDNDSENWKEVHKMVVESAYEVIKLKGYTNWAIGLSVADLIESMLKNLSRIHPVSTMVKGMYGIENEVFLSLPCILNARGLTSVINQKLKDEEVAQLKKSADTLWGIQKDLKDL
Method: as §2, §3
(§8) The LDH enzyme assay (pyruvate+NADH→) is measured by the decrease in NADH absorbance at 340 nm with respect to time.

LD5 (rabbit muscle) = biological target: T9, LD5 (rabbit muscle) (Oryctolagus cuniculus, UniProt P13491); test: as above; format: biochemical
T9 construct: rabbit muscle LDH (Sigma Chemical Co., Type V); purchased Sigma Chemical Co. Type V; host or cells: rabbit muscle
Method: as §2, §3, §8

CCCCCCCCCCOS(=O)(=O)[O-].[Na+] [DSS, sodium decylsulfate]
inactivation of mMDH relative to cMDH (mMDH): clear preferential inactivation of mMDH relative to cMDH
LD1 activity in amphiphile solution compared with buffer (LD1 [1]; 9 mM DSS in 30 mM phosphate buffer, pH 7.4, FIG. 10): less than control LD1 activity in buffer
isoenzyme activity beyond 9 mM amphiphile (LD1 [1]; DSS beyond 9 mM, FIG. 8): only LD1 continues to show activity
remaining activity at 7000 µM (LD1 [1]; pH 7.4, read-out: LD1 activity remaining relative to buffer): ~65%
Isoenzyme Activity LD1 (LD1 [2]): 15
Isoenzyme Activity LD5 (LD5 [3]): 0
remaining activity at 7000 µM (LD2): ~60%
LD4 activity relative to buffer (LD4): all the LD5 and LD4 activity is destroyed
remaining activity at 7000 µM (LD3): ~30%
discrimination of LDH isoenzymes (LD1 and LD5): excellent discriminators
Effectiveness (LDH isoenzyme inhibition specificity, LD1 vs LD5) (LD1 and LD5; range of amphiphile concentrations, relative activity vs buffer): ++
LD5 activity relative to buffer (LD5 [4]): all the LD5 and LD4 activity is destroyed
Interaction (specific inactivation of LD5 in the presence of LD1) [5]: useful positive results
Interaction (specific inactivation of LD5 in the presence of LD1) ([5]; listed as sodium decylsulfate): specific
LD1 (beef heart) activity in the presence of amphiphile (LD1 (beef heart)): almost no loss in LD1 activity
LD5 (rabbit muscle) activity in the presence of amphiphile (LD5 (rabbit muscle); DSS 8.65 mM, CP 1 mM, FIG. 1A): rapidly inactivates
time to complete inactivation of LD5 (LD5 (rabbit muscle); anionic detergent (DSS), dead time of the instrument): ≤ 5 s
